# Data published in ChEMBL document CHEMBL1145099, “Aloisines, a new family of CDK/GSK-3 inhibitors. SAR study, crystal structure in complex with CDK2, enzyme selectivity, and cellular effects” (J Med Chem, 2003).
# What was measured:
# [1] = molecular target: Cyclin-dependent kinase 5/CDK5 activator 1 (Homo sapiens, UniProt Q00535); assay: Inhibitory activity against recombinant mammalian cyclin-dependent kinase 5 (p35 NCK5a) expressed in Escherichia coli
# [2] = molecular target: CDK1/cyclin B (Marthasterias glacialis)
# [3] = molecular target: Glycogen synthase kinase-3 beta (Homo sapiens, UniProt P49841); assay: Inhibition of glycogen synthase kinase-3 beta, purified from porcine brain or expressed in and purified from insect Sf9 cells; format: cell-based, Sus scrofa
# Glycogen synthase kinase-3 beta, sequence (P49841 whole entry): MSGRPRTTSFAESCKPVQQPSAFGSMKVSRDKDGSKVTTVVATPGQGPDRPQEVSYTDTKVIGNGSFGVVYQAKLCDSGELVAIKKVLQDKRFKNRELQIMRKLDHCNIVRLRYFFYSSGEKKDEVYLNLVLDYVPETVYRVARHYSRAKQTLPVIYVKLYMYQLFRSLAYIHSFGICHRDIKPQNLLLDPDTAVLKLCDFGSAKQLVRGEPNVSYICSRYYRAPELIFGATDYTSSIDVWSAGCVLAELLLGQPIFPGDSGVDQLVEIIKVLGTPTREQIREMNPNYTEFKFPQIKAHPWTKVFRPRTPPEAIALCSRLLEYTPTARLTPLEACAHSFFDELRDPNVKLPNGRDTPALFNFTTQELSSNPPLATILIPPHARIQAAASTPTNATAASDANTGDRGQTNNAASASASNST
# Cyclin-dependent kinase 5/CDK5 activator 1, sequence (Q00535 whole entry): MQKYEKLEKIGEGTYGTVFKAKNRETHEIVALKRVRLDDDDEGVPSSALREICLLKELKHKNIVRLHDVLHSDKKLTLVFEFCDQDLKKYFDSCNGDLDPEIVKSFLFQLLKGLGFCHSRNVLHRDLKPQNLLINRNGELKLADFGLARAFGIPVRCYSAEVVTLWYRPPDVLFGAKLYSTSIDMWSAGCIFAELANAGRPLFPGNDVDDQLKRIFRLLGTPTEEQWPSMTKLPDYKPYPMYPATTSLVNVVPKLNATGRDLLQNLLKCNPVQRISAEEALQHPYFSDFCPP
# Cyclin-dependent kinase 5/CDK5 activator 1, sequence (Q15078 whole entry, further chain): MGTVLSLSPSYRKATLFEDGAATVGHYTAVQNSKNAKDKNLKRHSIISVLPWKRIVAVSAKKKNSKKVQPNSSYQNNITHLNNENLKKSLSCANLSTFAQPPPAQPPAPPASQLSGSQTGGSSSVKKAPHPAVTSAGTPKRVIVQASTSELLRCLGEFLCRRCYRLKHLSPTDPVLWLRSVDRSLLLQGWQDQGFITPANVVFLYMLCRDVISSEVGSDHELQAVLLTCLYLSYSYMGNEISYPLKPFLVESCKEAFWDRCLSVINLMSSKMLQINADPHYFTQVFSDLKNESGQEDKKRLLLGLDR
IC50 [1] [µM],IC50 [2] [µM],IC50 [3] [nM],SMILES
4,5,2300,c1ccc(-c2cc3[nH]ccnc-3n2)cc1
> 100,7,> 10000,CCCCCCCc1c(-c2ccc(OC)cc2)[nH]c2nccnc12
1.5,,920,CCCCc1c(-c2ccc(OC)cc2)[nH]c2nccnc12 [ALOISINE]
1.2,25,1800,CCCc1c(-c2ccc(O)cc2)[nH]c2nccnc12
,1.8,,Clc1ccc(-c2cc3[nH]ccnc-3n2)cc1
80,> 100,27000,c1ccc2c(-c3cc4[nH]ccnc-4n3)cccc2c1
0.5,0.4,400,CCCc1c(-c2ccc(OC)cc2)[nH]c2nccnc12
0.2,0.25,520,Cc1c(-c2ccc(O)cc2)[nH]c2nccnc12
100,30,1000,Clc1ccc(C2(c3cc4[nH]ccnc-4n3)CC2)cc1
100,,18000,Cc1c(C2(c3ccc(Cl)cc3)CC2)[nH]c2nccnc12
1,1.1,2000,COc1ccc(-c2[nH]c3nccnc3c2C)cc1OC
2,,500,COc1ccc(-c2[nH]c3nccnc3c2C(C)C)cc1
13,0.85,750,CC(C)c1c(-c2ccc(Cl)cc2)[nH]c2nccnc12
,100,> 100000,Cn1c(-c2ccccc2)cc2nccnc21
> 100,2,1000,c1ccc(Cc2c(-c3ccccc3)[nH]c3nccnc23)cc1
2,1,600,C=CCc1c(-c2ccc(OC)cc2)[nH]c2nccnc12
> 100,> 100,> 100000,c1ccc(-c2cc3[nH]c4ccccc4nc-3n2)cc1
10,3,2600,Cc1ccc(-c2cc3[nH]ccnc-3n2)cc1
3,,2500,COc1ccc(-c2[nH]c3nccnc3c2CCCCl)cc1
> 100,,6800,Clc1ccc(-c2[nH]c3nccnc3c2Cc2ccccc2)cc1
1,2.3,1900,Fc1ccc(-c2cc3[nH]ccnc-3n2)cc1
> 100,0.2,5900,CCCCc1c(-c2ccc(Cl)cc2)[nH]c2nccnc12
5,,1700,Cc1c(-c2ccc(Cl)cc2)[nH]c2nccnc12
0.8,0.3,460,COc1ccc(-c2[nH]c3nccnc3c2C)cc1

# Further lines, the compound ahead of its results:
SMILES,IC50 [1] [µM],IC50 [2] [µM],IC50 [3] [nM]
Oc1ccc(-c2[nH]c3nccnc3c2CC2CC2)cc1,> 100,50,3000
Cc1c(-c2ccc(OS(=O)(=O)N(C)C)cc2)[nH]c2nccnc12,0.9,0.7,500
Clc1cc(Cl)cc(-c2cc3[nH]ccnc-3n2)c1,> 100,> 100,> 100000
c1csc(-c2cc3[nH]ccnc-3n2)c1,2,7,1200
COc1ccc(-c2[nH]c3nccnc3c2CC2CC2)cc1,> 100,1,1100
FC(F)(F)c1ccc(-c2cc3[nH]ccnc-3n2)cc1,> 100,6,7200
Oc1ccc(-c2cc3[nH]ccnc-3n2)cc1,1,1.2,1200
c1ccc(-c2cc3[nH]ccnc-3n2)nc1,53,21,15000
N#Cc1ccc(-c2cc3[nH]ccnc-3n2)cc1,13,3,4800
COc1ccc(-c2cc3[nH]ccnc-3n2)cc1,4,2,1100
Cc1c[nH]c2cc(-c3ccccc3)nc-2n1,100,69,> 100000
c1c[nH]c2cc(-c3ccc(C4OCCO4)cc3)nc-2n1,15,8,20000
Oc1cccc(-c2cc3[nH]ccnc-3n2)c1,,2.5,
Brc1ccc(-c2cc3[nH]ccnc-3n2)cc1,> 100,,6000
Clc1ccc(-c2[nH]c3nccnc3c2CC2CCCCC2)cc1,> 100,10,8000
Oc1ccccc1-c1cc2[nH]ccnc-2n1,3,2.5,6500
COc1ccccc1-c1cc2[nH]ccnc-2n1,23,20,3300
c1c[nH]c2cc(-c3ccsc3)nc-2n1,1,2.3,800
COc1ccc(-c2[nH]c3nccnc3c2CC2CCCCC2)cc1,> 100,5,6800
CN(C)c1ccc(-c2cc3[nH]ccnc-3n2)cc1,> 100,20,12000
COc1cc(OC)cc(-c2cc3[nH]ccnc-3n2)c1,> 100,100,60000
COc1cc(-c2cc3[nH]ccnc-3n2)cc(OC)c1OC,> 100,100,85000
COc1ccc(-c2cc3ccc[nH]c-3n2)cc1,,60,
c1coc(-c2cc3[nH]ccnc-3n2)c1,9.3,12,15000
COc1cccc(-c2cc3[nH]ccnc-3n2)c1,10,13,3200
